Laboratory results from PubChem BioAssay AID1963854 (Molecular Pharmacology Branch, DTP, NCI, 2024).

Tested on: 186277-243-T-J2-PDC complex spheroid viability
Assay: Anticancer human tumor 186277-243-T-J2-PDC patient-derived colon adenocarcinoma cell line growth inhibition [POLQ]
Conditions: for IC50: curve of first compound; for viability, T/C: stronger effect = lower value
Outline: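 Three-cell-type spheroids modelling solid tumor plus stroma served as the readout system; POL inhibitors were tested individually and in combination, concentration ranges set by clinical Cmax where known.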

[1] = second compound 0.0316 µM, first compound 0.0316 µM
[2] = second compound 0.0316 µM, first compound 0.1 µM
[3] = second compound 0.0316 µM, first compound 0.316 µM
[4] = second compound 0.0316 µM, first compound 1 µM
[5] = second compound 0.1 µM, first compound 0.0316 µM
[6] = second compound 0.1 µM, first compound 0.1 µM
[7] = second compound 0.1 µM, first compound 0.316 µM
[8] = second compound 0.1 µM, first compound 1 µM
[9] = second compound 0.316 µM, first compound 0.0316 µM
[10] = second compound 0.316 µM, first compound 0.1 µM
[11] = second compound 0.316 µM, first compound 0.316 µM
[12] = second compound 0.316 µM, first compound 1 µM
[13] = second compound 1 µM, first compound 0.0316 µM
[14] = second compound 1 µM, first compound 0.1 µM
[15] = second compound 1 µM, first compound 0.316 µM
[16] = second compound 1 µM, first compound 1 µM
[17] = second compound 3.16 µM, first compound 0.0316 µM
[18] = second compound 3.16 µM, first compound 0.1 µM
[19] = second compound 3.16 µM, first compound 0.316 µM
[20] = second compound 3.16 µM, first compound 1 µM
[21] = second compound 10 µM, first compound 0.0316 µM
[22] = second compound 10 µM, first compound 0.1 µM
[23] = second compound 10 µM, first compound 0.316 µM
[24] = second compound 10 µM, first compound 1 µM
[25] = second compound 0.0316 µM, first compound 3.16 µM
[26] = second compound 0.0316 µM, first compound 10 µM
[27] = second compound 0.1 µM, first compound 3.16 µM
[28] = second compound 0.1 µM, first compound 10 µM
[29] = second compound 0.316 µM, first compound 3.16 µM
[30] = second compound 0.316 µM, first compound 10 µM
[31] = second compound 1 µM, first compound 3.16 µM
[32] = second compound 1 µM, first compound 10 µM
[33] = second compound 3.16 µM, first compound 3.16 µM
[34] = second compound 3.16 µM, first compound 10 µM
[35] = second compound 10 µM, first compound 3.16 µM
[36] = second compound 10 µM, first compound 10 µM
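Further: spheroids exposed to compounds for seven days.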
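Wherever viability, T/C is given: 100% = DMSO vehicle control viability.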

Structure (SMILES): CCc1c2c(nc3ccc(O)cc13)-c1cc3c(c(=O)n1C2)COC(=O)[C@]3(O)CC + Nc1ccc(C#CCN(C(=O)Cc2ncc(C(F)(F)F)cc2C(F)(F)F)c2ccc(F)cc2)nn1
- IC50 (second compound 0.0316 µM): 0.0309 µM
- IC50 (second compound 0.1 µM): 0.03 µM
- IC50 (second compound 0.316 µM): 0.0261 µM
- IC50 (second compound 1 µM): 0.0274 µM
- IC50 (second compound 3.16 µM): 0.0255 µM
- IC50 (second compound 10 µM): 0.0214 µM
- viability, T/C (second compound 0.0316 µM, first compound 0.00316 µM): 114%
- viability, T/C (second compound 0.0316 µM, first compound 0.01 µM): 87.4%
- viability, T/C [1]: 49.6%
- viability, T/C [2]: 26.4%
- viability, T/C [3]: 20.3%
- viability, T/C [4]: 18.1%
- viability, T/C (second compound 0.1 µM, first compound 0.00316 µM): 122%
- viability, T/C (second compound 0.1 µM, first compound 0.01 µM): 87.1%
- viability, T/C [5]: 49.9%
- viability, T/C [6]: 24.7%
- viability, T/C [7]: 20.8%
- viability, T/C [8]: 19.1%
- viability, T/C (second compound 0.316 µM, first compound 0.00316 µM): 128%
- viability, T/C (second compound 0.316 µM, first compound 0.01 µM): 86.9%
- viability, T/C [9]: 43.2%
- viability, T/C [10]: 23.1%
- viability, T/C [11]: 22.4%
- viability, T/C [12]: 19.4%
- viability, T/C (second compound 1 µM, first compound 0.00316 µM): 125%
- viability, T/C (second compound 1 µM, first compound 0.01 µM): 82.5%
- viability, T/C [13]: 46.8%
- viability, T/C [14]: 24.2%
- viability, T/C [15]: 20.6%
- viability, T/C [16]: 18.3%
- viability, T/C (second compound 3.16 µM, first compound 0.00316 µM): 114%
- viability, T/C (second compound 3.16 µM, first compound 0.01 µM): 82.9%
- viability, T/C [17]: 43.5%
- viability, T/C [18]: 20.9%
- viability, T/C [19]: 18.5%
- viability, T/C [20]: 18.1%
- viability, T/C (second compound 10 µM, first compound 0.00316 µM): 100%
- viability, T/C (second compound 10 µM, first compound 0.01 µM): 71.8%
- viability, T/C [21]: 40.2%
- viability, T/C [22]: 18.5%
- viability, T/C [23]: 17%
- viability, T/C [24]: 15.9%

Structure (SMILES): CNCc1ccc(-c2[nH]c3cc(F)cc4c3c2CCNC4=O)cc1 + COC1C(OC(N)=O)C(O)C(Oc2ccc3c(O)c(NC(=O)c4ccc(O)c(CC=C(C)C)c4)c(=O)oc3c2C)OC1(C)C
- IC50 (second compound 0.0316 µM): > 10 µM
- IC50 (second compound 0.1 µM): > 10 µM
- IC50 (second compound 0.316 µM): > 10 µM
- IC50 (second compound 1 µM): > 10 µM
- IC50 (second compound 3.16 µM): > 10 µM
- IC50 (second compound 10 µM): > 10 µM
- viability, T/C [1]: 99%
- viability, T/C [2]: 96.1%
- viability, T/C [3]: 91%
- viability, T/C [4]: 85.8%
- viability, T/C [25]: 99.3%
- viability, T/C [26]: 116%
- viability, T/C [5]: 102%
- viability, T/C [6]: 96.3%
- viability, T/C [7]: 106%
- viability, T/C [8]: 105%
- viability, T/C [27]: 106%
- viability, T/C [28]: 99%
- viability, T/C [9]: 110%
- viability, T/C [10]: 99.8%
- viability, T/C [11]: 102%
- viability, T/C [12]: 93.1%
- viability, T/C [29]: 115%
- viability, T/C [30]: 115%
- viability, T/C [13]: 87.1%
- viability, T/C [14]: 107%
- viability, T/C [15]: 101%
- viability, T/C [16]: 104%
- viability, T/C [31]: 102%
- viability, T/C [32]: 101%
- viability, T/C [17]: 87%
- viability, T/C [18]: 104%
- viability, T/C [19]: 108%
- viability, T/C [20]: 99.6%
- viability, T/C [33]: 109%
- viability, T/C [34]: 112%
- viability, T/C [21]: 103%
- viability, T/C [22]: 105%
- viability, T/C [23]: 104%
- viability, T/C [24]: 93.1%
- viability, T/C [35]: 104%
- viability, T/C [36]: 112%

Structure (SMILES): CCc1cc2c(N3CCc4c(cc(Cn5ccnc5)cc4-c4cn(C)nc4C(F)(F)F)C3=O)ccnc2c(OC)n1 + Nc1ccc(C#CCN(C(=O)Cc2ncc(C(F)(F)F)cc2C(F)(F)F)c2ccc(F)cc2)nn1
- IC50 (second compound 0.0316 µM): > 10 µM
- IC50 (second compound 0.1 µM): > 10 µM
- IC50 (second compound 0.316 µM): > 10 µM
- IC50 (second compound 1 µM): > 10 µM
- IC50 (second compound 3.16 µM): > 10 µM
- IC50 (second compound 10 µM): > 10 µM
- viability, T/C [1]: 94.6%
- viability, T/C [2]: 95.7%
- viability, T/C [3]: 91.6%
- viability, T/C [4]: 85.6%
- viability, T/C [25]: 96.3%
- viability, T/C [26]: 111%
- viability, T/C [5]: 90.2%
- viability, T/C [6]: 92.2%
- viability, T/C [7]: 100%
- viability, T/C [8]: 97.8%
- viability, T/C [27]: 119%
- viability, T/C [28]: 95.5%
- viability, T/C [9]: 88.8%
- viability, T/C [10]: 111%
- viability, T/C [11]: 90.9%
- viability, T/C [12]: 108%
- viability, T/C [29]: 104%
- viability, T/C [30]: 114%
- viability, T/C [13]: 103%
- viability, T/C [14]: 102%
- viability, T/C [15]: 93.1%
- viability, T/C [16]: 94.6%
- viability, T/C [31]: 110%
- viability, T/C [32]: 105%
- viability, T/C [17]: 109%
- viability, T/C [18]: 98.7%
- viability, T/C [19]: 112%
- viability, T/C [20]: 100%
- viability, T/C [33]: 106%
- viability, T/C [34]: 94.2%
- viability, T/C [21]: 117%
- viability, T/C [22]: 99%
- viability, T/C [23]: 100%
- viability, T/C [24]: 117%
- viability, T/C [35]: 121%
- viability, T/C [36]: 90.9%
